Assay results published in patent US10815276B2, “Cell penetrating peptides and methods of making and using thereof” (Entrada Therapeutics, Inc., priority 2014, dated 2020).
Like-named read-outs stand apart in the source and are kept apart here. Non-standard residues stand in square brackets, D forms with d. Residues, ends and D or L forms follow the SMILES beside them. No end group written: not given here. *: point of attachment. Lys(5-FITC)NH2 = NC(=O)[C@H](CCCCNC(=S)Nc1ccc2c(c1)C(=O)OC21c2ccc(O)cc2Oc2cc(O)ccc21)N*; Ala(7-OPO3H2-coumarin-4-yl) = N[C@@H](Cc1cc(=O)oc2cc(OP(=O)(O)O)ccc12)C(=O)O; RhodamineB = CCN(CC)c1ccc2c(-c3ccccc3C(=O)*)c3ccc(=[N+](CC)CC)cc-3oc2c1; 2Nal = N[C@@H](Cc1ccc2ccccc2c1)C(=O)O; d2Nal = N[C@H](Cc1ccc2ccccc2c1)C(=O)O; AEEA = NCCOCCOCC(=O)O

How the values were obtained:
HeLa cells = assay: Cytoplasmic delivery of pCAP-containing peptides, flow cytometry; details: 10 μM peptide, 2 h
HEK293 cells = assay: Live-cell confocal microscopy of internalization; assay type: cell-based, human; details: for CAP fluorescence in cells (confocal): 5 μM pCAP peptide, 60 min; for Intracellular fluorescence of rhodamine B-labeled peptide: 5 μM peptide, 2 h
Method: To examine the internalization of rhodamine-labeled peptides, 5×10^4 HEK293 cells were plated in a 35 mm glass-bottomed microwell dish (MatTek). […] The cells were gently washed with DPBS twice and imaged on a Visitech Infinity 3 Hawk 2D-array live cell imaging confocal microscope. To detect the internalization of pCAP-containing peptides, HEK293 cells were similarly plated and incubated with the peptide solution (5 μM) at 37° C. for 60 min. After removal of the medium, the cells were gently washed with DPBS containing sodium pervanadate (1 mM) twice and incubated for 10 min in DPBS containing 5 μM nuclear staining dye DRAQS. The resulting cells were washed with DPBS twice and imaged on a spinning disk confocal microscope (UltraView Vox CSUX1 system). To monitor GFP internalization, 5×10^4 HEK293 cells were seeded in a 35 mm glass-bottomed microwell dish and cultured overnight. Cells were treated with cFΦR4-S-S-GFP (1 μM) at 37° C. for 2 h. After removal of the medium, the cells were incubated in DPBS containing 5 μM DRAQS for 10 min. The cells were washed with DPBS twice and imaged on a Visitech Infinity 3 Hawk 2D-array live cell imaging confocal microscope.

[1] = tested on: cell type (e.g., HeLa cells); assay: Cellular uptake efficiency of cyclic CPPs; assay type: cell-based; details: relative to cFΦR4 (290-1F, 100%)
Method: In particular embodiments, uptake efficiency is determined by comparing (i) the amount of a cyclic cell-penetrating peptide of the invention internalized by a cell type (e.g., HeLa cells) to (ii) the amount of c(FΦRRRRQ) (290-1F) internalized by the same cell type. To measure cellular uptake efficiency, the cell type may be incubated in the presence of a cell-penetrating peptide of the invention for a specified period of time (e.g., 30 minutes, 1 hour, 2 hours, etc.) after which the amount of the cell-penetrating peptide internalized by the cell is quantified. Separately, the same concentration of c(FΦRRRRQ) (290-1F) is incubated in the presence of the cell type over the same period of time, and the amount of the second peptide internalized by the cell is quantified. Quantification can be achieved by fluorescently labeling the cell-penetrating peptide (e.g., with a FTIC dye) and measuring the fluorescence intensity using techniques well-known in the art.
(§1) Also discussed herein are the CPP sequences in Table 16. All uptake/delivery efficiencies are in Table 17 are relative to that of cFΦR4 (290-1F, 100%). SUV1 are small unilamellar vesicles that mimic the neutral outer membrane of mammalian cells [45% phosphatidylcholine (PC), 20% phosphatidylethanolamine (PE), 20% sphingomyelin (SM), and 15% cholesterol (CHO)]. SUV2 are small unilamellar vesicles that mimic the negatively charged endosomal membrane of mammalian cells [50% PC, 20% PE, 10% phosphatidylinositol (PI), and 20% bis(monoacylglycerol)phosphate].

[2] = tested on: SUV1 (vesicles that mimic the neutral outer membrane of mammalian cells); assay: Fluorescence polarization membrane binding, SUV1
Excerpt: as §1
(§2) Measurements were carried out fluorescence polarization using FITC-labeled cyclic peptides against increasing concentrations of vesicles. Experiments were performed at pH 7.4 and 5.5 (pH inside late endosomes).

[3] = tested on: SUV2 (vesicles that mimic the negatively charged endosomal membrane of mammalian cells); assay: Fluorescence polarization membrane binding, SUV2
Excerpt: as §1, §2

[4] = pH 7.4, read-out: Membrane Binding KD (mM) SUV1 pH 7.4
[5] = pH 5.5, read-out: Membrane Binding KD (mM) SUV2 pH 5.5
[6] = pH 7.4, read-out: Membrane Binding KD (mM) SUV2 pH 7.4

Molecule	Mean fluorescence intensity (MFI) of CAP (HeLa cells) [AU]	CAP fluorescence in cells (confocal) (HEK293 cells)	Intracellular fluorescence of rhodamine B-labeled peptide (HEK293 cells)	Uptake Efficiency (%) [1] [%]	Kd [2, 4] [mM]	Kd [3, 5] [mM]	Kd [3, 6] [mM]	Kd ([2]; pH 5.5, read-out: Membrane Binding KD (mM) SUV1 pH 5.5) [mM]
RKKRRQRRR-miniPEG-DE(pCAP)LI (RKKRRQRRR[AEEA]DE[Ala(7-OPO3H2-coumarin-4-yl)]LI) [Tat-PCP, reference compound]	290	weak fluorescence						
cyclo(FΦRRRRQ)-AAAAA-K(Rho) (cyclo(F[2Nal]RRRRQAAAAAK(RhodamineB)); not fully specified (C-terminus, bridges); printed as cyclo(FΦRRRRQ)-AAAAA-K(Rho)) [cFΦR4-A5]			both punctuate and diffuse fluorescence					
Ac-DE(pCap)LI-NH2 (Ac-DE[Ala(7-OPO3H2-coumarin-4-yl)]LI-NH2; SMILES CC[C@H](C)[C@H](NC(=O)[C@H](CC(C)C)NC(=O)[C@H](Cc1cc(=O)oc2cc(OP(=O)(O)O)ccc12)NC(=O)[C@H](CCC(=O)O)NC(=O)[C@H](CC(=O)O)NC(C)=O)C(N)=O) [untagged PCP, reference compound]	30	failed to enter cells						
N=C(N)NCCC[C@@H]1NC(=O)[C@H](CCCNC(=N)N)NC(=O)[C@H](CCCNC(=N)N)NC(=O)[C@H](Cc2ccc3ccccc3c2)NC(=O)[C@H](Cc2ccccc2)NC(=O)[C@H](CCC(=O)N[C@@H](CCCCNC(=S)Nc2ccc3c(c2)C(=O)OC32c3ccc(O)cc3Oc3cc(O)ccc32)C(N)=O)NC1=O [Peptide 290-5F, c(FΦRRRQ)] (cyclo(F[2Nal]RRRE(Lys(5-FITC)NH2)))				97	10.1	0.066	2.4	
cyclo(FΦRRRRQ)-RRRRR-K(Rho) (cyclo(F[2Nal]RRRRQRRRRRK(RhodamineB)); not fully specified (C-terminus, bridges); printed as cyclo(FΦRRRRQ)-RRRRR-K(Rho)) [cFΦR4-R5]			both punctuate and diffuse fluorescence					
N=C(N)NCCC[C@@H]1NC(=O)[C@H](CCCNC(=N)N)NC(=O)[C@H](CCCNC(=N)N)NC(=O)[C@H](Cc2ccc3ccccc3c2)NC(=O)[C@H](Cc2ccccc2)NC(=O)[C@H](Cc2ccccc2)NC(=O)[C@H](CCC(=O)N[C@@H](CCCCNC(=S)Nc2ccc3c(c2)C(=O)OC32c3ccc(O)cc3Oc3cc(O)ccc32)C(N)=O)NC(=O)[C@H](CCCNC(=N)N)NC1=O [Peptide 290-7F] (cyclo(FF[2Nal]RRRRE(Lys(5-FITC)NH2)))				134	1.65	0.007	0.11	
N=C(N)NCCC[C@@H]1NC(=O)[C@H](CCC(=O)N[C@@H](CCCCNC(=S)Nc2ccc3c(c2)C(=O)OC32c3ccc(O)cc3Oc3cc(O)ccc32)C(N)=O)NC(=O)[C@H](CCCNC(=N)N)NC(=O)[C@H](CCCNC(=N)N)NC(=O)[C@H](Cc2ccccc2)NC(=O)[C@H](Cc2ccc3ccccc3c2)NC(=O)[C@H](CCCNC(=N)N)NC1=O [Peptide 290-2F, c(RRΦFRRQ)] (cyclo(RR[2Nal]FRRE(Lys(5-FITC)NH2)))				47	1.95	0.025	0.69	
N=C(N)NCCC[C@@H]1NC(=O)[C@H](CCCNC(=N)N)NC(=O)[C@H](CCCNC(=N)N)NC(=O)[C@H](CCCNC(=N)N)NC(=O)[C@H](Cc2ccc3ccccc3c2)NC(=O)[C@H](Cc2ccccc2)NC(=O)[C@H](CCC(=O)N[C@@H](CCCCNC(=S)Nc2ccc3c(c2)C(=O)OC32c3ccc(O)cc3Oc3cc(O)ccc32)C(N)=O)NC(=O)[C@H](CCCNC(=N)N)NC1=O [Peptide 290-6F] (cyclo([2Nal]RRRRRE(Lys(5-FITC)NH2)F))				184	2.2	0.019	0.12	
N=C(N)NCCC[C@@H]1NC(=O)[C@H](Cc2ccc3ccccc3c2)NC(=O)[C@@H](Cc2ccccc2)NC(=O)[C@H](Cc2ccccc2)NC(=O)[C@H](CCC(=O)N[C@@H](CCCCNC(=S)Nc2ccc3c(c2)C(=O)OC32c3ccc(O)cc3Oc3cc(O)ccc32)C(N)=O)NC(=O)[C@@H](CCCNC(=N)N)NC(=O)[C@H](CCCNC(=N)N)NC(=O)[C@@H](CCCNC(=N)N)NC1=O [Peptide 290-12F, c(FfΦRrRrQ)] (cyclo(F[dF][2Nal]R[dR]R[dR]E(Lys(5-FITC)NH2)))				681	0.8	0.004	0.026	
N=C(N)NCCC[C@@H]1NC(=O)[C@H](CCCNC(=N)N)NC(=O)[C@H](CCCNC(=N)N)NC(=O)[C@H](Cc2ccccc2)NC(=O)[C@H](CCC(=O)N[C@@H](CCCCNC(=S)Nc2ccc3c(c2)C(=O)OC32c3ccc(O)cc3Oc3cc(O)ccc32)C(N)=O)NC(=O)[C@H](Cc2ccc3ccccc3c2)NC(=O)[C@H](CCCNC(=N)N)NC1=O [Peptide 290-4F, c(FRRRRΦQ)] (cyclo(FRRRR[2Nal]E(Lys(5-FITC)NH2)))				59	7.24	0.11	0.54	
N=C(N)NCCC[C@@H]1NC(=O)[C@@H](CCCNC(=N)N)NC(=O)[C@H](CCCNC(=N)N)NC(=O)[C@@H](CCCNC(=N)N)NC(=O)[C@@H](Cc2ccc3ccccc3c2)NC(=O)[C@H](Cc2ccccc2)NC(=O)[C@H](CCC(=O)N[C@@H](CCCCNC(=S)Nc2ccc3c(c2)C(=O)OC32c3ccc(O)cc3Oc3cc(O)ccc32)C(N)=O)NC1=O [Peptide 290-13F, c(FϕrRrRQ)] (cyclo(F[d2Nal][dR]R[dR]RE(Lys(5-FITC)NH2)))				200	0.68	0.04	0.28	
N=C(N)NCCC[C@@H]1NC(=O)[C@H](CCC(=O)N[C@@H](CCCCNC(=S)Nc2ccc3c(c2)C(=O)OC32c3ccc(O)cc3Oc3cc(O)ccc32)C(N)=O)NC(=O)[C@H](CCCNC(=N)N)NC(=O)[C@H](Cc2ccc3ccccc3c2)NC(=O)[C@H](CCCNC(=N)N)NC(=O)[C@H](Cc2ccccc2)NC(=O)[C@H](CCCNC(=N)N)NC(=O)[C@H](Cc2ccccc2)NC1=O [Peptide 290-8F] (cyclo(RFRFR[2Nal]RE(Lys(5-FITC)NH2)))				98	0.4	0.082	0.39	
N=C(N)NCCC[C@@H]1NC(=O)[C@H](CCC(=O)N[C@@H](CCCCNC(=S)Nc2ccc3c(c2)C(=O)OC32c3ccc(O)cc3Oc3cc(O)ccc32)C(N)=O)NC(=O)[C@H](CCCNC(=N)N)NC(=O)[C@H](Cc2ccc3ccccc3c2)NC(=O)[C@H](CCCNC(=N)N)NC(=O)[C@H](Cc2ccccc2)NC(=O)[C@H](CCCNC(=N)N)NC1=O [Peptide 290-3F, c(RRFRΦRQ)] (cyclo(RRFR[2Nal]RE(Lys(5-FITC)NH2)))				163	0.22	0.26	0.4	
N=C(N)NCCC[C@@H]1NC(=O)[C@H](Cc2ccc3ccccc3c2)NC(=O)[C@@H](Cc2ccccc2)NC(=O)[C@H](CCC(=O)N[C@@H](CCCCNC(=S)Nc2ccc3c(c2)C(=O)OC32c3ccc(O)cc3Oc3cc(O)ccc32)C(N)=O)NC(=O)[C@@H](CCCNC(=N)N)NC(=O)[C@H](CCCNC(=N)N)NC(=O)[C@@H](CCCNC(=N)N)NC1=O [Peptide 290-9F, c(fΦRrRrQ)] (cyclo([dF][2Nal]R[dR]R[dR]E(Lys(5-FITC)NH2)))				602	1.2	0.012	0.033	0.81
N=C(N)NCCC[C@@H]1NC(=O)[C@@H](CCCNC(=N)N)NC(=O)[C@H](CCCNC(=N)N)NC(=O)[C@@H](CCCNC(=N)N)NC(=O)[C@@H](Cc2ccc3ccccc3c2)NC(=O)[C@H](Cc2ccccc2)NC(=O)[C@@H](CCC(=O)N[C@@H](CCCCNC(=S)Nc2ccc3c(c2)C(=O)OC32c3ccc(O)cc3Oc3cc(O)ccc32)C(N)=O)NC1=O [Peptide 290-18F, c(FϕrRrRq)] (cyclo(F[d2Nal][dR]R[dR]R[dE](Lys(5-FITC)NH2)))				205	0.75	0.022	0.04	
